This passage reports IC50 results from patent US8163724B2, “Glucocorticosteroids, processes for their preparation, pharmaceutical compositions containing them and their use in therapy” (AstraZeneca AB, priority 2007, dated 2012).

Structures are written as SMILES.

For orientation: IC50 means the concentration at which inhibition is half-maximal.

For this test, the target named is T1, recombinant human GR (Homo sapiens, UniProt P04150).
T1 construct: purchased Panvera/Invitrogen P2812 (kit P2893)
T1 sequence (P04150 1-777): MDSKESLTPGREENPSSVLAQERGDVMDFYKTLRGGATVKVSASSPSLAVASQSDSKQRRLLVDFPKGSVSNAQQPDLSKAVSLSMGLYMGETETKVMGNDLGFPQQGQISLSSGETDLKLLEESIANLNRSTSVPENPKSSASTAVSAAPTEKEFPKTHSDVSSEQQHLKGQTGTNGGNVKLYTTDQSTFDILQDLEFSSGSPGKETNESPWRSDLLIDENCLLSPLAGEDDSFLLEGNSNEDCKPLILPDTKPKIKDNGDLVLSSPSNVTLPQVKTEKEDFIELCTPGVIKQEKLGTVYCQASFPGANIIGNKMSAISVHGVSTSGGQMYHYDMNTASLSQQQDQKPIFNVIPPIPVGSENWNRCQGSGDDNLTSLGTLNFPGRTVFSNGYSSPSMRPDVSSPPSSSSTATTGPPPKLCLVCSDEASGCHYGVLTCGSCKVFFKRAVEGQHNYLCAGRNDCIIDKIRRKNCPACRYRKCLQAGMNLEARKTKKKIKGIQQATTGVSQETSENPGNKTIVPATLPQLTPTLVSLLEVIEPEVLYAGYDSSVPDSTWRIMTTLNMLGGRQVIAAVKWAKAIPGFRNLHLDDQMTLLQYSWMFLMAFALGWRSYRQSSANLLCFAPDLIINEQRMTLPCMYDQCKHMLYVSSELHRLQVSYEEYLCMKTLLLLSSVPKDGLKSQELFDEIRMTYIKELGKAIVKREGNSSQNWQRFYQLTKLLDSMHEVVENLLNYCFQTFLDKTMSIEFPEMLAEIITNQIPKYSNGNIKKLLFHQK
Put plainly: Human Glucocorticoid Receptor (GR) Assay (fluorescence polarization, Panvera/Invitrogen kit). As to conditions: fluorescence polarization; GS Red tracer; 2 hours at room temperature; 100% control 10 μM Dexamethasone; read-out: Inhibition of GR binding, IC50. Format: binding. How it is done:
Human Glucocorticoid Receptor (GR) Assay
The assay is based on a commercial kit from Panvera/Invitrogen (Part number P2893). The assay technology is fluorescence polarization. […] The GR and Stabilizing Peptide reagents are stored at −70° C. while the GS Red is stored at −20° C. Also included in the kit are 1M DTT (Panvera, Part number P2325, stored at −20° C.) and GR Screening buffer 10× (Panvera, Part number P2814, stored at −70° C. initially but once thawed stored at room temperature). Avoid repeated freeze/thaws for all reagents. The GR Screening buffer 10× comprises 100 mM potassium phosphate, 200 mM sodium molybdate, 1 mM EDTA and 20% DMSO.
0% control was 100% DMSO and 100% control was 10 μM Dexamethasone. Background solution (8 μL; assay buffer 10×, Stabilizing Peptide, DTT and ice cold MQ water) was added to the background wells. GS Red solution (7 μL; assay buffer 10×, Stabilizing Peptide, DTT, GS Red and ice cold water) was added to all wells except background wells. GR solution (7 μL; assay buffer 10×, Stabilizing Peptide, DTT, GR and ice cold water) was added to all wells. The plate was sealed and incubated in a dark at room temperature for 2 hours.
On the technique in general: In fluorescence polarisation assays a small probe gives low polarisation when free and higher when bound to something large.
Regarding `C#CCSC(=O)[C@@]1(OC(=O)CC)CC[C@H]2[C@@H]3CCC4=Cc5c(cnn5-c5ccc(F)cc5)C[C@]4(C)[C@H]3[C@@H](O)C[C@@]21C` [Example 20, (1R,3aS,3bS,10aR,10bS,11S,12aS)-7-(4-fluorophenyl)-11-hydroxy-10a,12a-dimethyl-1-[(prop-2-yn-1-ylthio)carbonyl]-1,2,3,3a,3b,4,5,7,10,10a,10b,11,12,12a-tetradecaphydrocyclopenta[5,6]naphtho[1,2-f]indazol-1-yl propanoate], the IC50 was found to be 7.7 nM.
Then `CCC(=O)O[C@]1(C(=O)SC)CC[C@H]2[C@@H]3CCC4=Cc5c(cnn5-c5ccc(F)cc5)C[C@]4(C)[C@H]3[C@@H](O)C[C@@]21C` [Example 21, (1R,3aS,3bS,10aR,10bS,11S,12aS)-7-(4-Fluorophenyl)-11-hydroxy-10a,12a-dimethyl-1-[(methylthio)carbonyl]-1,2,3,3a,3b,4,5,7,10,10a,10b,11,12,12a-tetradecahydropcyclopenta[5,6]naphtho[1,2-f]indazol-1-yl propanoate], with 2.7 nM; and `CCC(=O)O[C@]1(C(=O)SCC(=O)N(C)C)CC[C@H]2[C@@H]3CCC4=Cc5c(cnn5-c5ccc(F)cc5)C[C@]4(C)[C@H]3[C@@H](O)C[C@@]21C` [Example 22, (1R,3aS,3bS,10aR,10bS,11S,12aS)-1-({[2-(Dimethylamino)-2-oxoethyl]thio}carbonyl)-7-(4-fluorophenyl)-11-hydroxy-10a,12a-dimethyl-1,2,3,3a,3b,4,5,7,10,10a,10b,11,12,12a-tetradecahydrocyclopenta[5,6]naphtho[1,2-f]indazol-1-yl propanoate], with 3.9 nM; and `C=CCSC(=O)[C@@]1(OC(=O)CC)CC[C@H]2[C@@H]3CCC4=Cc5c(cnn5-c5ccc(F)cc5)C[C@]4(C)[C@H]3[C@@H](O)C[C@@]21C` [Example 23, (1R,3aS,3bS,10aR,10bS,11S,12aS)-7-(4-Fluorophenyl)-11-hydroxy-10a,12a-dimethyl-1-[(prop-2-en-1-ylthio)carbonyl]-1,2,3,3a,3b,4,5,7,10,10a,10b,11,12,12a-tetradecahydropcyclopenta[5,6]naphtho[1,2-f]indazol-1-yl propanoate], with 13 nM.
As for `CCC(=O)O[C@]1(C(=O)SCCCO)CC[C@H]2[C@@H]3CCC4=Cc5c(cnn5-c5ccc(F)cc5)C[C@]4(C)[C@H]3[C@@H](O)C[C@@]21C` [Example 24, (1R,3aS,3bS,10aR,10bS,11S,12aS)-7-(4-Fluorophenyl)-11-hydroxy-1-{[(3-hydroxy-propyl)thio]carbonyl}-10a,12a-dimethyl-1,2,3,3a,3b,4,5,7,10,10a,10b,11,12,12a-tetradecahydrocyclopenta[5,6]naphtho[1,2-f]indazol-1-yl propanoate], the figure is 5.1 nM; as for `CCC(=O)O[C@]1(C(=O)SCC2CC2)CC[C@H]2[C@@H]3CCC4=Cc5c(cnn5-c5ccc(F)cc5)C[C@]4(C)[C@H]3[C@@H](O)C[C@@]21C` [Example 25, (1R,3aS,3bS,10aR,10bS,11S,12aS)-1-{[(Cyclopropylmethyl)thio]carbonyl}-7-(4-fluorophenyl)-11-hydroxy-10a,12a-dimethyl-1,2,3,3a,3b,4,5,7,10,10a,10b,11,12,12a-tetradecahydrocyclopenta[5,6]naphtho[1,2-f]indazol-1-yl propanoate], 10 nM.
Then `CCC(=O)O[C@]1(C(=O)SCCF)CC[C@H]2[C@@H]3CCC4=Cc5c(cnn5-c5ccc(F)cc5)C[C@]4(C)[C@H]3[C@@H](O)C[C@@]21C` [Example 26, (1R,3aS,3bS,10aR,10bS,11S,12aS)-1-{[(2-Fluoroethyl)thio]carbonyl}-7-(4-fluoro-phenyl)-11-hydroxy-10a,12a-dimethyl-1,2,3,3a,3b,4,5,7,10,10a,10b,11,12,12a-tetradecahydrocyclopenta[5,6]naphtho[1,2-f]indazol-1-yl propanoate], with 4.3 nM.
